In patent US20120316199A1, “COMPOSITIONS AND METHODS FOR TREATING, CONTROLLING, REDUCING, OR AMELIORATING INFLAMMATORY PAIN” (priority 2011, published 2012):
Where “and” joins values, the source holds several entries; their conditions need not be identical. Identical values can stand only once. Entries after “also recorded” stand apart in the source; their conditions may differ.

Legend:
pupillary diameter = test: Pupillary diameter measurement, rabbit paracentesis model; format: in vivo, Rabbit (New Zealand); conditions: for Pupillary diameter T2: −5 min: 5 min before the first paracentesis; for Pupillary diameter T2: −5 min / Pupillary diameter T3: +115 min / Pupillary diameter T1: −180 min: raw data per eye; for Pupillary diameter T3: +115 min: 5 min before the second paracentesis; for Pupillary diameter T1: −180 min: basal; for Mean (mm) Δ(T3 − T1) of pupillary diameter: group mean, n=8 eyes
[1] = system: MPO activity in iris-ciliary body; test: Myeloperoxidase (MPO) activity in iris-ciliary body, rabbit paracentesis model; format: in vivo, Rabbit (New Zealand); conditions: for MPO activity in iris-ciliary body: individual samples collected after the second paracentesis; for MPO activity in iris-ciliary body, Mean: after the second paracentesis, group mean
Description: (§1) Each rabbit was placed in a restraint device and tagged with the alphanumeric code. The formulations were instilled (50 μl) into the conjunctival sac of both eyes 180, 120, 90 and 30 min before the first paracentesis; then 15, 30, 90 min after the first paracentesis. To perform the first paracentesis the animals were anaesthetized by intravenous injection of 5 mg/kg Zoletil® (Virbac; 2.5 mg/kg tiletamine HCl and 2.5 mg/kg zolazepam HCl) and one drop of local anesthetic (Novesina®, Novartis) was administered to the eye. Anterior chamber paracentesis was performed with a 26 G needle attached to a tuberculin syringe; the needle was introduced into the anterior chamber through the cornea, taking care not to damage the tissues. Two hours after the first paracentesis, the animals were sacrificed with 0.4 ml Tanax® (Intervet International B.V.) and the second paracentesis was performed. About 100 μl of aqueous humor were removed at the second paracentesis. Aqueous humor was immediately split in four aliquots and stored at −80° C. until analysis. Then both eyes were enucleated and the iris-ciliary body was carefully excised, placed in polypropylene tubes, and stored at −80° C. until analysis.
The activity of MPO was measured as previously described by Williams et al.[5] The iris-ciliary bodies were carefully dried, weighed and immersed in 1 ml of hexa-decyl-trimethyl-ammonium bromide solution. Then, the samples were sonicated for 10 sec on ice by a ultrasound homogenizer (HD 2070, Bandelin electronic), freeze-thawed three times, sonicated for 10 sec and centrifuged at 14,000 g for 10 min to remove cellular debris. An aliquot of the supernatant (40-200 μl) was diluted to 3 ml with the o-dianisidine 2HCl/H2O2 solution. The change in absorbance at 460 nm was continuously monitored for 5 min by a spectrophotometer (UV/Vis Spectrometer Lambda EZ 201; Perkin Elmer). The slope of the line (Δ/min) was determined for each sample and used to calculate the number of units of MPO in the tissue as follows:
Values were expressed as units of MPO/g of tissue.
(§2) Pupillary diameter, PGE2, protein, PMN, and MPO were expressed as mean±SEM. Statistical analysis was performed using one way ANOVA followed by a Newman-Keuls post hoc test. Clinical score was expressed as % of eyes and the statistical analysis was performed using Kruskal-Wallis followed by a Dunn post hoc test. P<0.05 was considered statistically significant in both cases. Prism 4 software (GraphPad Software, Inc.) was used for the analysis and graphs.

[2] = system: iris and conjunctival vessels, anterior chamber; test: Clinical evaluation by slit lamp (clinical score), rabbit paracentesis model; format: in vivo, Rabbit (New Zealand); set-up: key to Clinical Score −180 min / Clinical Score −5 min / Clinical Score +115 min: 0=normal; 1=discrete dilatation of iris and conjunctival vessels; 2=moderate dilatation of iris and conjunctival vessels; 3=intense iridal hyperemia with flare in the anterior chamber; 4=intense iridal hyperemia with flare in the anterior chamber and presence of fibrinous exudates; conditions: for Clinical Score −5 min: 5 min before the first paracentesis; for Clinical Score −5 min / Clinical Score +115 min / Clinical Score −180 min: raw data per eye; for Clinical Score +115 min: 5 min before the second paracentesis; for Clinical Score −180 min: basal
[3] = system: protein concentration in the aqueous humor; test: Protein measurement in aqueous humor, rabbit paracentesis model; format: in vivo, Rabbit (New Zealand); conditions: for Protein level in aqueous humor, Mean / Protein level in aqueous humor, raw data: second paracentesis; for Protein level in aqueous humor, Mean: group mean; for Protein level in aqueous humor, raw data: per eye
Description: as §1
For protein concentration determination in the aqueous humor we used the Protein Quantification Kit (Fluka; Cat. No. 77371; Lot. No. 1303129). Five microliters of aqueous humor were diluted to 100 μl with water. Twenty microliters of samples and of standards were load into a 96-well plate and recorded in a plate layout. Samples were treated following the assay procedure described in the kit. A microplate reader (GDV, Italy; model DV 990 B/V6) set at 670 nm was used for making the calibration and analyzing the samples.
as §2

[4] = system: PGE2 in the aqueous humor; test: Prostaglandin E2 (PGE2) measurement in aqueous humor, rabbit paracentesis model; format: in vivo, Rabbit (New Zealand); conditions: for PGE2 level in aqueous humor, Mean: second paracentesis, group mean
Description: as §1
For the quantitative determination of PGE2 in the aqueous humor we used the PGE2 Immunoassay kit (R&D Systems; Cat. No. KGE004; Lot. No. 240010). Eleven microliters or 16 μl of aqueous humor were diluted to 110 μl or 160 μl with the calibrator diluent solution provided with the kit. One hundred microliters of samples and of standards were load into a 96-well plate and recorded in a plate layout. Samples were treated following the assay procedure described in the kit. A microplate reader (GDV, Italy; model DV 990 B/V6) set at 450 nm (wavelength correction at 540 nm) was used for making the calibration and analyzing the samples.
as §2

[5] = system: New Zealand White rabbits; test: Mortality/morbidity in New Zealand White rabbits, topical dosing four times daily; format: in vivo
Description: (§3) On Days 1-31, animals received daily topical doses of the appropriate test article into the right eye. Animals were dosed four times per day, with doses administered 2 hours apart. Doses were administered using a calibrated 50-μL pipette. The eyelids were held close for 10 seconds immediately following dosing. The time of each dose administration was recorded.
Animals determined to be moribund were euthanized with an intravenous injection of commercial euthanasia solution.

rabbit eyes = test: Ophthalmic observations (slit lamp, McDonald Shadduck scores) in New Zealand White rabbits; format: in vivo; set-up: key to Ophthalmic Observation (Slit-Lamp): AN = Appeared normal
Description: Prior to placement on study, each animal underwent a pre-treatment ophthalmic examination (slit lamp and indirect ophthalmoscopy). Observations were scored according to the McDonald Shadduck system and recorded using a standardized data collection sheet.
as §3
Ophthalmic examinations (slit lamp) were performed prior to the first dosing on Days 5, 12, 22, 26, and 33. Ocular findings were scored according to the McDonald Shadduck system and recorded using a standardized data collection sheet.

[6] = system: intraocular pressure (IOP); test: Intraocular pressure in New Zealand White rabbits, topical dosing four times daily; format: in vivo
Description: as §3
Intraocular pressure (“IOP”) was determined for both eyes of each animal on Days 3, 5, 10, 12, 16, 18, 22, 24, 26, 30, and 32. IOP was evaluated with a Medtronic Solan, Model 30 classic pneumatonometer. Proparacaine hydrochloride 0.5% (1 drop) was delivered to each eye prior to IOP measurement. IOP was measured on Monday. Wednesday, and Friday of each week. A two-point diurnal curve was established: IOP was recorded at 8 a.m. and 12 p.m. on Day 3, and at 8 a.m. and 2 p.m. on later days, with a ±1 hour range for each of these times. The time of the measurements was recorded.
Descriptive statistics were prepared for IOP data of each treatment group (left and right eyes separately) at each measurement interval. The statistics included the number of observations (“N”) mean, standard deviation (“STD”), and standard error (“SEM”). Statistical analyses were conducted on IOP results using Statistical Analysis Systems (SAS Institute. Inc., Cary, N.C. V8.0). Parameters were evaluated using analysis of variance/GLM Procedure followed by Tukey's Standardized Range Test (Tukey, 1985) for post hoc comparisons of group means. The level of significance was set at a probability of p<0.05 for all statistical procedures. Group IOP means were compared at each interval, with left and right eyes compared separately.

[7] = Group A, 0.1% (0.05 mg/dose) 4 x daily, individual rabbits
[8] = Group A, 0.1%, treated right eye, individual animals
[9] = 0.1% formulation, +115 min, N=8 eyes
[10] = 0.1% formulation, −5 min, N=8 eyes

## CC(C(=O)O)c1ccc(-c2ccccc2)c(F)c1 (stereo not shown) [F, flurbiprofen]
Pupillary diameter; 0.03% formulation
  Pupillary diameter T2: −5 min: 6.0 mm and 6.5 mm and 7.0 mm and 5.5 mm
  Pupillary diameter T3: +115 min: 4.0 mm and 3.5 mm and 5.5 mm and 5.0 mm and 4.5 mm and 6.0 mm
  Pupillary diameter T1: −180 min: 5.0 mm and 7.0 mm and 6.0 mm and 5.5 mm
  Mean (mm) Δ(T3 − T1) of pupillary diameter: −0.9 mm
[1]; 0.03% F
  MPO activity in iris-ciliary body: 1.27 Unit/g
[1]; 0.03% formulation
  MPO activity in iris-ciliary body, Mean: 0.906 MPO Unit/g
[2]; 0.03% formulation
  Clinical Score −5 min: 0
  Clinical Score +115 min: 2
  Clinical Score −180 min: 0
[2]; 0.03% formulation, +115 min, N=8 eyes
  Percentage of eyes with clinical score 2: 100%
[2]; 0.03% formulation, −5 min, N=8 eyes
  Percentage of eyes with clinical score 0: 100%
[2]; 0.03% formulation, −180 min (basal), N=8 eyes
  Percentage of eyes with clinical score 0: 100%
[3]; 0.03% formulation, p<0.001
  Protein in aqueous humor, statistical significance vs CTR: statistical significance
[3]; 0.03% formulation
  Protein level in aqueous humor, Mean: 20.910 mg/mL
  Protein level in aqueous humor, raw data: 20.78 mg/mL and 28.80 mg/mL and 23.41 mg/mL and 20.21 mg/mL and 17.53 mg/mL and 15.12 mg/mL and 20.52 mg/mL
[4]; 0.03% formulation, p<0.05
  PGE2 in aqueous humor, statistical significance versus CTR: statistically significant versus CTR
[4]; 0.03% formulation
  PGE2 level in aqueous humor, Mean: 1.189 ng/mL

## C[C@@H]1C[C@H]2[C@@H]3CCC4=CC(=O)C=C[C@]4(C)[C@@]3(F)[C@@H](O)C[C@]2(C)[C@@]1(O)C(=O)CO [Dex, dexamethasone, reference compound]
Pupillary diameter; 0.1% formulation
  Pupillary diameter T2: −5 min: 5.5 mm and 6.5 mm and 6.0 mm and 7.0 mm and 7.5 mm
  Pupillary diameter T3: +115 min: 5.5 mm and 6.0 mm and 4.5 mm and 5.0 mm and 6.5 mm
  Pupillary diameter T1: −180 min: 6.0 mm and 7.0 mm and 5.5 mm and 6.5 mm
  Mean (mm) Δ(T3 − T1) of pupillary diameter: −0.8 mm
[1]; 0.1% Dex
  MPO activity in iris-ciliary body: 1.32 Unit/g
[1]; 0.1% formulation
  MPO activity in iris-ciliary body, Mean: 0.618 MPO Unit/g
[5]; 0.05 mg/dose (0.1% dexamethasone suspension or 1 mg/g BOL-303242-X), right eye four times daily, Days 1-31
  Mortality (rabbits that died or were euthanized between Days 11 and 33): Six of ten
[5]; [7]
  Day of Death (day euthanized or found dead): 25 (2×) and 27 (2×) and 23 and 13
  Recorded Notes on death: Euthanized. Very sick/poor health; left (untreated) eye; also recorded: Euthanized due to severe profuse hemorrhagic diarrhea; also recorded: Found dead. No rigor mortis present
[5]; dexamethasone suspension 0.05 mg/dose four times daily up to 31 days
  Mortality rate: 6 deaths per 10 rabbits
Rabbit eyes; [8]
  Conjunctival congestion Score: 1
  Ophthalmic Observation (Slit-Lamp): AN
Rabbit eyes; four times daily up to 31 days, BOL-303242-X 0.05, 0.25, or 0.5 mg/dose, dexamethasone 0.05 mg/dose
  Ophthalmic observation associated with unilateral topical instillation: sporadic mild conjunctival congestion
[2]; 0.1% formulation
  Clinical Score −5 min: 0 and 1
  Clinical Score +115 min: 1 and 3
  Clinical Score −180 min: 0
[2]; [9]
  Percentage of eyes with clinical score 1: 75%
  Percentage of eyes with clinical score 3: 25%
[2]; [10]
  Percentage of eyes with clinical score 0: 75%
  Percentage of eyes with clinical score 1: 25%
[2]; 0.1% formulation, −180 min (basal), N=8 eyes
  Percentage of eyes with clinical score 0: 100%
[6]; 0.1% dexamethasone (Group A), on several days, one or both eyes, p<0.05
  Mean IOP of the group compared with corresponding eyes of other groups: significantly higher
[6]; left and right eyes, dexamethasone 0.1% (Group A), BOL-303242-X 10, 5, 1 mg/g (Groups B-D), four times daily
  Course of mean IOP after treatment began: increased sharply
[3]; 0.1% formulation
  Protein level in aqueous humor, Mean: 33.457 mg/mL
  Protein level in aqueous humor, raw data: 31.31 mg/mL and 31.81 mg/mL and 35.95 mg/mL and 37.15 mg/mL and 32.12 mg/mL and 32.40 mg/mL
[4]; 0.1% formulation
  PGE2 level in aqueous humor, Mean: 2.263 ng/mL
